What was measured:
[1] = Pharmacokinetics after single ear canal administration: concentration in perilymph (Examples 1 and 2)
Protocol: Pharmacokinetics study of different active agents has been conducted with ready-to-use formulations. The pharmacokinetic study consists of a single administration up to the eardrum on male Long Evans rats and assessment of the level of the active agent in middle ear area (tympanic bulla) and in the inner ear area (perilymph).
2. Route of administration: 20 μl of each formulation are delivered in the ear canal of one animal in one administration.
3. Animals: 6 male rats Long Evans, were obtained from Janvier Labs, Le Genest St Isle, 53941 St Berthevin, France. Acclimation Animals arrived on site at least 5 days before the experiment to allow optimal acclimation. Selection Animal health was examined on the day before starting the study, to ensure that only animals in good health were selected to enter the testing procedures. Identification: At the beginning of the study, animals were identified with a number on the tail. Each cage was labelled with a record card, indicating the test compound, the dose of administration and the identification of the animals Housing: Rats were housed in cages (1354G (Tecniplast, Lyon), dim 595*380 mm (w*d)), in a room where the air was continuously filtered, thereby avoiding any contamination. During experiments, rats were caged in groups of five (300-400 g) at a constant temperature with a day/night cycle of 12/12 hours. Animals received water (autoclaved water) and nutrition (ref A04C10), ad libitum.
4. Treatment and study design: The treatment was delivered into the ear canal and on the tympanic membrane on anesthetized rats (2.5% isoflurane). The exact volume of administration was determined during this first test and delivered (volume of 20 μL). Both ears were treated. After administration, the animal was kept on a heating pad for 5 minutes, positioned on its side to allow the compound to diffuse through the tympanic membrane. Then the second ear were administered, and the animal kept on its side for 5 minutes. Finally, the animal was kept on a ventral position until its recovery from anesthesia. The diffusion trough the tympanic membrane and into the inner ear and was assessed with the dosage of the perilymph sampling. Tympanic bulla sampling technique: After sacrifice of the rats, the right tympanic bulla was collected from each animal and transferred to an Eppendorf tube, weighed individually and frozen at −20° C. until analysis. Perilymph sampling technique: After sacrifice of the rats and extraction of the tympanic bulla from the left ear, a volume of about 1 μL of cochlear fluid at the base of the cochlea was sampled ex vivo. Tubes were weighed individually before and after sampling, and immediately transferred to a −20° C. freezer.
5. Bioanalysis: The concentration of each compound in the perilymph and in the tympanic bulla was quantified using an exploratory LC/MS-MS assay method in outsourcing laboratory (Eurofins Vergeze, France). The concentration of amitriptyline in plasma was assessed.
The same materials and methods were used as in Example 1.

[2] = Further pharmacokinetics study, apricot oil formulations: concentration in perilymph (Example 3); format: in vivo, male Long Evans rats
Protocol: Apricot oil is present in the formulation as a solubilizing agent. α-(-)-bisabolol is used as diffusing agent. […] 2. […] 3. […] 4. […] Both ears were treated. […] 5. […]

[3] = Pharmacokinetics after single ear canal administration: concentration in plasma; format: in vivo, male Long Evans rats; details: from 1 to 8 hours after administration
Protocol: 2. […] 3. […] Animals received water (autoclaved water) and nutrition (ref […]), ad libitum. 4. […] Both ears were treated. […] Perilymph sampling technique: […] […] 5. […] The concentration of amitriptyline in plasma was assessed.

[4] = after 8 hours from the administration onto the tympanic membrane, Example 1 conclusion
[5] = after 8 hours from the administration onto the tympanic membrane, Example 3 conclusion

SMILES | Presence within the inner ear (perilymph) [1, 4] | Presence within the inner ear (perilymph) ([1]; rat, in vivo) | further results
CC(C)c1cc2[nH]c(=O)n(NS(C)(=O)=O)c(=O)c2cc1-c1ccnn1C [selurampanel] | present | – | –
CC1CCCCC1(c1cccs1)N1CCCCC1 (stereo not shown) [gacyclidine] | present | – | –
CCCN[C@H]1CCc2nc(N)sc2C1 [pramipexole] | – | present | –
CCN(CC)CC(=O)Nc1c(C)cccc1C [lidocaine] | – | – | Presence within the inner ear (perilymph) [2, 5]: present
CCCN(CCC)CCc1cccc2c1CC(=O)N2 [ropinirole] | – | present | –
C=C(C)[C@@H]1CCC(C)=C[C@H]1c1c(O)cc(CCCCC)cc1O [cannabidiol] | present | – | –
C[C@@H]1C[C@H]2[C@@H]3CCC4=CC(=O)C=C[C@]4(C)[C@@]3(F)[C@@H](O)C[C@]2(C)[C@@]1(O)C(=O)CO [dexamethasone] | – | present | Presence within the inner ear (perilymph) [2, 5]: present
COc1ccc2c(c1)[C@]13CCCC[C@@H]1[C@H](C2)N(C)CC3 [dextromethorphan] | present | – | –
CN(C)CCC=C1c2ccccc2CCc2ccccc21 [amitriptyline] | – | present | Presence in plasma [3]: present in plasma
O=c1cc(-c2ccccc2)oc2c(O)c(O)ccc12 [7,8-dihydroxyflavone] | – | present | Presence within the inner ear (perilymph) ([2]; rat, in vivo): present
